Measurements taken from paper PMC8037910, “Effect of Chronic Administration of 5-(3-chlorophenyl)-4-Hexyl-2,4 -Dihydro-3H-1,2,4-Triazole-3-Thione (TP-315)—A New Anticonvulsant Drug Candidate—On Living Organisms” (International Journal of Molecular Sciences, 2021).
Like-named read-outs stand apart in the source and are kept apart here.

What was measured:
[1] = PAMPA BBB (parallel artificial membrane permeability assay); format: in vitro ADME; settings: pH 7.4, 37 °C, donor 20 µg/mL, read-out: Permeability Coefficients (Pe × 10−6) ± SD
Procedure: BBB permeability of the compounds was investigated by using a PAMPA method (parallel artificial membrane permeability assay). The PAMPA system consisted of a 96-well microfilter plate and a 96-well filter plate and was divided into two chambers: a donor at the bottom and an acceptor at the top, separated by a 120-μm-thick microfilter disc coated with BBB lipid solution (Pion, Inc.). The solutions of each compound were prepared in dimethyl sulfoxide (DMSO) at 4 mg/mL concentration and then diluted with Prisma buffer (pH = 7.4) to obtain the donor drug solution with the final nominal concentration of 20 µg/mL. The donor solutions were placed on the donor plate. Acceptor plate contained Brain Sink Buffer (BSB). The plates were put together and incubated at 37 °C for 180 min in a humidity-saturated atmosphere. The concentrations of the compounds were determined with a UV-reader (Multiskan GO, Thermo Scientific) at 254 nm in the donor and acceptor compartments.
The permeability values (Pe) were calculated by using the following equation:(1) −ln(1−CA/Cequilibrium)/S×(1/VD+1/VA)×t where VD: donor volume, VA: acceptor volume, Cequilibrium: equilibrium concentration Cequilibrium=CD×VD+ CA×VA/VD+VA, CD: donor concentration, CA: acceptor concentration, S: membrane area, and t: incubation time (in seconds). High BBB permeation (CNS+) was expected for compounds with Pe > 5.19, whereas low BBB permeation (CNS-) was expected for compounds with Pe < 2.07 [21].

[2] = test system: maximal electroshock-induced seizure (MES); set-up: method as in PMID 23291122, PMID 25226229, PMID 25090118; settings: mice, cited from earlier work
[3] = test system: 6 Hz psychomotor seizure model; set-up: method as in PMID 32253957; settings: mice, cited from earlier work
[4] = test system: mice; set-up: method as in PMID 23291122, PMID 25226229, PMID 25090118; unit not given here; settings: chimney test, cited from earlier work
[5] = target: batrachotoxin-binding site on voltage-gated sodium channels; set-up: method as in PMID 25226229, PMID 30594731, PMID 28824309; settings: read-out: Affinity towards Batrachotoxin-Binding Site on Sodium Channels IC50 ± SEM; cited from earlier work
[6] = test system: mice; set-up: method as in PMID 23291122, PMID 25226229, PMID 25090118; settings: rotarod test (†), the values are: TD50, cited from earlier work

Structure (SMILES) | Papp at 180 min, 20 µg/mL [1] [×10⁻⁶ cm/s] | Anticonvulsant Activity in MES Test ED50 ± S.E. ([2]; pretreatment time 15 min) [mg/kg] | Anticonvulsant Activity in MES Test ED50 ± S.E. ([2]; pretreatment time 30 min) [mg/kg] | Anticonvulsant Activity in MES Test ED50 ± S.E. ([2]; pretreatment time 60 min) [mg/kg] | Anticonvulsant Activity in MES Test ED50 ± S.E. ([2]; pretreatment time 120 min) [mg/kg] | Anticonvulsant Activity in 6 Hz Test ED50 ± SEM ([3]; pretreatment time 15 min) [mg/kg] | Anticonvulsant Activity in 6 Hz Test ED50 ± SEM ([3]; pretreatment time 30 min) [mg/kg] | Anticonvulsant Activity in 6 Hz Test ED50 ± SEM ([3]; pretreatment time 60 min) [mg/kg] | Anticonvulsant Activity in 6 Hz Test ED50 ± SEM ([3]; pretreatment time 120 min) [mg/kg] | Neurotoxicity in Chimney or Rotarod (†) Tests in Mice ([4]; pretreatment time 15 min) | Neurotoxicity in Chimney or Rotarod (†) Tests in Mice ([4]; pretreatment time 30 min) | Neurotoxicity in Chimney or Rotarod (†) Tests in Mice ([4]; pretreatment time 60 min) | Neurotoxicity in Chimney or Rotarod (†) Tests in Mice ([4]; pretreatment time 120 min) | IC50 [5] [µM] | Neurotoxicity in Chimney or Rotarod (†) Tests in Mice ([6]; pretreatment time 15 min) [mg/kg] | Neurotoxicity in Chimney or Rotarod (†) Tests in Mice ([6]; pretreatment time 30 min) [mg/kg] | Neurotoxicity in Chimney or Rotarod (†) Tests in Mice ([6]; pretreatment time 60 min) [mg/kg] | Neurotoxicity in Chimney or Rotarod (†) Tests in Mice ([6]; pretreatment time 120 min) [mg/kg]
Cc1ccc(-n2c(-c3cccc(Cl)c3)n[nH]c2=S)cc1 [TP-10, 5-(3-Chlorophenyl)-4-(4-methylphenyl)-2,4-dihydro-3H-1,2,4-triazole-3-thione] | 40.2 ± 5.1 | 57.0 ± 9.4 | 74.5 ± 8.1 | 187.1 ± 18.8 | 281.4 ± 13.6 | 62.6 ± 13.2 | 61.1 ± 9.7 | 169.7 ± 18.5 | 167.6 ± 17.4 | 338.1 ± 12.0 | 338.1 ± 14.7 | 333.4 ± 18.6 | 395.1 ± 25.2 |  |  |  |  | 
CCCCCCn1c(Cc2cccc(Cl)c2)n[nH]c1=S [TP-427, 5-(3-Chlorobenzyl)-4-hexyl-2,4-dihydro-3H-1,2,4-triazole-3-thione] | 477 ± 39.6 | 72.1 ± 7.0 | 74.5 ± 8.1 | 83.6 ± 3.8 | 97.9 ± 10.9 | 40.9 ± 6.4 | 46.6 ± 8.2 | 51.6 ± 6.9 | 64.9 ± 5.6 | >1000 | >1000 | 540.7 ± 20.9 | 548.5 ± 21.4 | 6.17 ± 1.43 |  |  |  | 
CC(C)Cn1c(Cc2cccc(Cl)c2)n[nH]c1=S [TPR-22, 5-(3-Chlorobenzyl)-4-isobutyl-2,4-dihydro-3H-1,2,4-triazole-3-thione] | 34.4 ± 8.3 | 130.4 ± 17.6 | 130.4 ± 17.6 | 159.9 ± 21.9 | 195.7 ± 21.5 |  |  |  |  |  |  |  |  | 18.9 ± 1.2 | 306 ± 19.8 | 314 ± 22 | 326 ± 23.1 | 330 ± 24.2
CCCC(CCC)C(=O)O [Valproic acid, reference compound] | 15.4 ± 4.71 |  |  |  |  |  |  |  |  |  |  |  |  |  |  |  |  | 
